For data set [1], the system named is PDE4 enzyme isolated from U937 human monocytic cells. The data set is described as follows: PDE4 inhibition, cAMP hydrolysis assay. Format: biochemical. Particulars: for IC50: PDE4 from U937 cells, cAMP hydrolysis; for PDE4 and TNF-α inhibition activity compared with apremilast: both assays, in words. As for the experimental part: (§1) PDE4 enzyme was isolated from U937 human monocytic cells and used for testing inhibition in a cAMP hydrolysis assay as previously described ([Schafer et al. 2010]). For the TNF-α production assay, human peripheral blood mono-nuclear cells (PBMC) were isolated from buffy coat of normal donor blood units (Blood Center of New Jersey, East Orange, NJ) by density centrifugation over Ficoll Hypaque (Pharmacia, Piscataway, NJ). Cells were cultured in RPMI 1640 (Life Technologies, Grand Island, NY) supplemented with 5% AB^+ human serum (Gemini Bio-products, Woodland, CA), 2-mM L-glutamine, 100-U/mL penicillin and 100-μg/mL streptomycin (Life Technologies). PBMC (2×10^5 cells) were plated in 96-well flat-bottom Costar tissue culture plates (Corning, NY) in duplicate. Cells were stimulated with lipopolysaccharides (LPS) (from Salmonella abortus equi; Sigma cat.no. L-1887, St.Louis, MO) at a final concentration of 1 ng/mL in the absence or presence of compounds. The compounds were dissolved in DMSO (Sigma) and subsequent dilutions were done in culture medium immediately before use. The compounds were added to cells 1 h before LPS stimulation. The cells were incubated for 16-18 h at 37°C in 5% CO2, and super-natants were then collected, diluted with culture medium and assayed for TNF-α levels by enzyme-linked immunosorbent assay (ThermoFisher, Rockford, IL). Fifty percent inhibitory concentrations (IC50) for the PDE4 enzymatic and TNF-α assay were calculated by non-linear regression analysis using Prism 5.1 (GraphPad Software). Regression curves were sigmoidal dose response curves with maximum and minimum constrained to 100% and 0%, respectively.

Data set [2] in a line: Metabolite profiling by HPLC radiochromatography in plasma, urine and faeces. Format: in vivo, human. The arrangement: key to Plasma (% AUC relative to TRA); share of circulating radioactivity / % of dose excreted, urine: ND: not detected; D: detected by MS, but at concentrations too low to accurately quantify by radiochromatography. Particulars: for Plasma (% AUC relative to TRA); share of circulating radioactivity: AUC0-t (unchanged drug or metabolite)/AUC0-48 (TRA) * 100%; for % of dose excreted, faeces: faeces collected up to 96-h post-dose; for % of dose excreted, urine: urine collected up to 48-h post-dose; for Share of the excreted radioactivity / excreted dose: urine plus faeces; for Concentration in circulation relative to apremilast / half-life / Tmax: plasma; for half-life / Tmax: human; for half-life / Tmax / Plasma AUC0-t / Plasma AUC0-∞: radiochromatography; for half-life / Tmax / Plasma Cmax / Plasma AUC0-t / Plasma AUC0-∞: single oral 20-mg dose; for half-life / Plasma Cmax / Plasma AUC0-t / Plasma AUC0-∞: mean ± SD; for half-life: read-out: Plasma t½ (converted); for Tmax: male, median and range; for Plasma Cmax: plasma radioactivity concentrations and radiochromatography. As for the experimental part: Individual plasma samples collected from all subjects at 0.5, 1, 2.5, 8, 24, 36 and 48 h post-dose were analysed for metabolite profiling. A pooled sample (equal volume from 0.5,1,2.5,8 and 24 h) from subject 1 was also used for metabolite profiling. Three volumes of acetonitrile were added to each sample, followed by mixing and centrifu-gation. The supernatant was removed and the pellet was washed twice with acetonitrile. The combined superna-tants were evaporated to dryness under a stream of nitrogen. The residues were re-suspended in acetonitrile: 1% formic acid in water (1:1), assayed for extraction recovery and analysed for metabolite profiling.
For each subject, urine samples were pooled using an equal percentage by volume of the 0-4, 4-8, 8-12 and 12-24-h samples. The 24-48-h urine sample from each subject and a pool of the 0-168-h urine samples from subject 1 were also analysed for metabolite profiling. Samples were mixed and centrifuged prior to the supernatants being transferred to fresh tubes for metabolite profiling analysis.
Faecal homogenates for metabolite profiling were pooled using an equal percentage by weight to generate two pools (0-48 h and 48-96 h) for each subject. An additional pool (0-168 h) was prepared using the samples collected from subject 1. An aliquot (approximately 6 g) of each pool was extracted with three volumes of acetonitrile; samples were mixed and centrifuged. The supernatant was removed and the pellets were extracted twice with an additional 12 mL of acetonitrile each time. The combined supernatants were evaporated to dryness under a stream of nitrogen and the residue was re-suspended in a small volume (approximately 400 μL) of acetonitrile: 1% formic acid in water (1:1). Samples were assayed for extraction recovery prior to metabolite profiling.
HPLC analysis for metabolite profiling was performed using a Shimadzu LC-10ADVP (Shimadzu Corp., Columbia, MD) or a Waters 2695 Alliance Separation Module (Waters Corp., Milford, MA) with the autosampler set to an ambient temperature of approximately 22°C. ASPD-10A VPUV-Vis Detector or a Waters 996 Photodiode array detector set to 254 nm was used to detect UV absorbance. [^14C]Apremilast and metabolites were separated using a Phenomenex Luna C 18(2) column (150 × 4.6 mm, 3 μm; Phenomenex, Torrance, CA) equipped with a RP-18 guard column (15×3.2 mm, 7 μm) or using an ACE 3 C18 column (150 × 4.6 mm, 3 μm; Advanced Chromatography Technologies, Aberdeen, Scotland) equipped with an ACE 3 guard column (10×3mm, 3 μm). The mobile phases used were 0.4% formic acid in water; pH 3.2 with ammonium hydroxide (mobile phase A) and acetonitrile (mobile phase B). The column temperature was 30°C and the flow rate was 0.7mL/min. The linear gradient was delivered as follows: 0-5 min to 100% A; 5-20 min to 85% A; 20-30 min hold at 85% A; 30-50 min to 65% A; 50-60 min to 60% A; 60-70 min to 50% A; 70-75 min to 0% A; hold at 0% A until 80 min; return to initial conditions over 2 min.
Radioactivity profiles for excreta were determined by radiochromatography using liquid chromatography-accurate radioisotope counting stop-flow system (LC-ARC; AIM Research Company, Wilmington, DE). Radioactivity was detected using a β-Ram Radioflow detector (IN/US Systems, Brandon, FL) equipped with a 1300-μL liquid cell. Liquid scintillation cocktail and column eluate were mixed at a ratio of 2.5:1. Radioactive peaks were quantified using LC-ARC data handling software. Plasma radioactivity profiles were determined by collecting the column eluate into 96-well Deepwell LumaPlates at a rate of 0.25 min/fraction. The plates were dried and the radioactivity in each well determined using a PerkinElmer TopCount NXT Microplate Scintillation Counter. HPLC radiochromatograms were reconstructed using LC-ARC data handling software.
Pharmacokinetic data were generated by non-compartmental analysis of plasma or whole blood versus time profiles using WinNonlin (version 4.1, Enterprise Edition). […]

Data set [3] relates to TNF-α production by human peripheral blood mononuclear cells. As to the kind of experiment: TNF-α production assay in LPS-stimulated PBMC. Format: cell-based. Particulars: LPS 1 ng/mL, 16-18 h, ELISA. The method, then: as §1

Where “and” joins values, the source holds several entries; their conditions need not be identical. Identical values can stand only once.

One may read the IC50 as the concentration needed to halve the response being measured. `CCOc1cc([C@@H](CS(C)(=O)=O)NC(=O)c2cccc(NC(C)=O)c2C(=O)O)ccc1OC` [M1/M2]: the IC50 in data set [1] worked out at 120 µM. In addition, in data set [2], the “Plasma (% AUC relative to TRA); share of circulating radioactivity” value (from here on “Plasma (% AUC relative to TRA); share”) is on record as “D”; the “% of dose excreted, faeces” value is given as 0.5 % of dose; the “% of dose excreted, urine” value is listed as 0.9 % of dose. Also, the half-inhibitory concentration (IC50) in data set [3] was determined as 77 µM.
The molecule `CCOc1cc([C@@H](CS(C)(=O)=O)N2C(=O)c3cccc(NC(C)=O)c3C2=O)ccc1O` [Metabolite M3, O-desmethyl apremilast] registered a concentration for half-maximal inhibition (IC50) in data set [1] of 8.3 µM. In data set [2], the “Plasma (% AUC relative to TRA); share” value is “D”; the “% of dose excreted, faeces” value is 5 % of dose and 4.6 % of dose; the “% of dose excreted, urine” value is recorded as “D”; the “Share of the excreted radioactivity / excreted dose” value is reported as greater than 4%. Further, in data set [3], half-maximal inhibition (IC50) required 5.6 µM.
On to `COc1ccc([C@@H](CS(C)(=O)=O)N2C(=O)c3cccc(NC(C)=O)c3C2=O)cc1O` [Metabolite M5, O-desethyl apremilast], for which the values for the IC50 in data set [1] and in data set [3] were 44 µM and 4.9 µM, respectively.
Regarding `CCOc1cc([C@@H](CS(C)(=O)=O)N2C(=O)c3cccc(N)c3C2=O)ccc1OC` [Metabolite M7, N-deacetyl apremilast], in data set [1], the IC50 turned out to be 0.16 µM; the “PDE4 and TNF-α inhibition activity compared with apremilast” value is recorded as “IC50 values similar to those of apremilast”. In data set [2], the “Plasma (% AUC relative to TRA); share” value is on record as “D”; the “% of dose excreted, faeces” value is listed as 0.1 % of dose; the “Concentration in circulation relative to apremilast” value is listed as less than 2%; the “% of dose excreted, urine” value is on record as “D”. This molecule gave an IC50 in data set [3] of 0.13 µM.
A word on the Tmax: it is the time from dosing to the highest level. In data set [1], `CCOc1cc([C@@H](CS(C)(=O)=O)N2C(=O)c3cccc(NC(C)=O)c3C2=O)ccc1O[C@@H]1O[C@H](C(=O)O)[C@@H](O)[C@H](O)[C@H]1O` [Metabolite M12, O-desmethyl apremilast glucuronide] had an IC50 greater than 100 µM. In addition, in data set [2], the “Plasma (% AUC relative to TRA); share” value amounted to 38.7%, the half-life is 15.8 ± 3.9 h, the Tmax was found to be 2.5 h and the “Plasma Cmax” value is reported as 111±36 ngEq/mL. Also, in data set [2], the “Plasma AUC0-t” value is listed as 2124±331 ngEq*h/mL; the “Plasma AUC0-∞” value stood at 2446±416 ngEq*h/mL; the “% of dose excreted, urine” value was 34 % of dose and 33.7 % of dose; the “Share of the excreted radioactivity / excreted dose” value turned out to be 34%. Further, the “Plasma (% AUC relative to TRA); share” value in data set [2] (listed as O-desmethyl apremilast glucuronide) is on record as 39%. Further, the half-inhibitory concentration (IC50) in data set [3] was greater than 10 µM.
In the case of `CCOc1cc([C@@H](CS(C)(=O)=O)N2C(=O)c3cccc(N)c3C2=O)ccc1OC1OC(C(=O)O)C(O)C(O)C1O` (stereo partly drawn) [Metabolite M14, O-desmethyl, N-deacetyl apremilast glucuronide], the half-maximal inhibitory concentration (IC50) in data set [1] was greater than 80 µM. Also, in data set [2], the “Plasma (% AUC relative to TRA); share” value was 4.9%, the Tmax is 2.5 h, the “Plasma Cmax” value was 9.4±4.3 ngEq/mL and the “Plasma AUC0-t” value is 269±146 ngEq*h/mL. In data set [2], the “% of dose excreted, urine” value is listed as 4.0 % of dose. Also, in data set [3], the IC50 was greater than 10 µM.
On to `CCOc1cc([C@@H](CS(C)(=O)=O)N2C(=O)c3cccc(NC(=O)COC4OC(C(=O)O)C(O)C(O)C4O)c3C2=O)ccc1OC` (stereo partly drawn) [Metabolite M16], for which the IC50 in data set [1] is 6.5 µM. For the same molecule, in data set [2], the “Plasma (% AUC relative to TRA); share” value came out at 6.6%, the half-life is 11 ± 2.4 h, the time to peak (Tmax) is 5.3 h and the “Plasma Cmax” value is given as 27.6±26.0 ngEq/mL. Moreover, in data set [2], the “Plasma AUC0-t” value is given as 363 ±54 ngEq*h/mL; the “Plasma AUC0-∞” value was 389±91 ngEq*h/mL; the “% of dose excreted, urine” value is given as 0.6 % of dose. In data set [3], this molecule yielded a half-maximal inhibitory concentration (IC50) greater than 10 µM.
Take `CCOc1cc([C@@H](CS(C)(=O)=O)N2C(=O)c3cccc(NC(=O)CO)c3C2=O)ccc1OC` [Metabolite M17]: in data set [1], half-maximal inhibition (IC50) was put at 0.094 µM; the “PDE4 and TNF-α inhibition activity compared with apremilast” value is “IC50 values similar to those of apremilast”. In data set [2], the “Plasma (% AUC relative to TRA); share” value is listed as “D”; the “% of dose excreted, faeces” value is listed as 0.9 % of dose; the “Concentration in circulation relative to apremilast” value is less than 2%; the “% of dose excreted, urine” value is 1.2 % of dose. The same molecule returned an IC50 in data set [3] of 0.021 µM.
